Measured values from patent US7235263B2, “Processes for controlling microbial organic compound production” (Kimberly-Clark Worldwide, Inc., priority 2001, dated 2007).

Legend:
Assay type in all cases: cell-based
[1] = system: Proteus mirabilis; test: Growth of aerobically cultivated Proteus mirabilis in urine:TSB, microtiter serial dilution, optical density; conditions: for optical density (bacterial cell growth): 48 hours at 37° C., aerobic
Procedure: Proteus mirabilis was cultured in TSB as described in Example 1 and transferred to a urine:TSB mixture (9:1) and incubated under aerobic conditions as described in Example 1. […] In a 96-well microtiter plate with a lid, 150 microliters of each 10% solution was introduced into the first and second columns of the wells. Using a multi-channel pipette, 150 microliters of urine:TSB mixture was introduced into each well except the first column. Beginning at the second column of wells, serial dilutions were made by removing 150 microliters from the second column and transferring it to the third column. The mixture was mixed by pipetting up and down three times. The serial dilutions continued across each column of the plate and, after column 11, 150 microliters was discarded leaving column 12 as the 0% solution. Each well was then inoculated with 1 microliter of Proteus mirabilis, except for the negative control rows. One to three drops of anti-fogging solution was place on the plate lids with a cotton applicator, and allowed to air dry. The mixtures were incubated for 48 hours at 37° C. under aerobic conditions. After incubation of the samples, each was analyzed for bacterial cell growth utilizing the optical density procedure as set forth in Example 1.

[2] = system: Proteus mirabilis (ATCC 29906); test: Bacterial yield of facultatively grown Proteus mirabilis in urine:TSB (from optical density); conditions: Table 7; 10% (w/v) mannitol; facultative
Procedure: Proteus mirabilis (ATCC 29906) were recovered from frozen state by growing the appropriate bacterial coated MicroBank Bead (Pro Lab, Austin Tex.) in 10 mL trypticase soy broth (TSB, Difco, Ann Arbor, Mich.) in a 15 mL sterile loosely tightened screw capped conical tube overnight at 37° C. The tube was held stationary. (E. coli (ATCC 8739), utilized in Example 6 herein, was recovered using the same procedure described herein for Proteus mirabilis). Upon observation of turbidity, the bacterial suspension was checked for purity by isolation plate and Gram stain. Once determined that the isolate was Proteus mirabilis (or E. coli in Example 6), a colony from the isolation plate was transferred to 10 mL of TSB in a 15 mL sterile screw capped conical tube and incubated overnight at 37° C. under facultative conditions. Samples of bacterial suspension resulting from this overnight TSB culture were used to initiate all experiments utilizing Proteus mirabilis bacteria (or E. coli in Example 6).
(§1) Proteus mirabilis was taken from a TSB culture (described in (1) above) and grown under various conditions for use in the Examples. For bacteria to be grown under aerobic conditions, 50 microliters of Proteus mirabilis was taken from a TSB culture prepared as described above and inoculated into a 50 mL volume of a freshly made 9:1 (by volume) pooled adult female urine:TSB mixture into a 250 mL shake flask. This mixture was rotated at 250 rpm at 37° C. overnight to grow the bacteria. For bacteria to be grown under facultative conditions, 10 microliters of Proteus mirabilis was taken from a TSB culture prepared as described above and inoculated into a 10 mL volume of a freshly made 9:1 (by volume) pooled adult female urine:TSB mixture into a 15 mL tube. The tube was loosely fitted with a screw cap, and held stationary at 37° C. overnight to grow the bacteria. For bacteria to be grown under anaerobic conditions, 10 microliters of Proteus mirabilis was taken from a TSB culture prepared as described above and inoculated into a 10 mL volume of a freshly made 9:1 (by volume) pooled adult female urine:TSB mixture into a 15 mL conical tube. The tube was purged with nitrogen and a screw cap tightly closed, and then was held stationary overnight at 37° C. to grow the bacteria.
In this Example, five samples were prepared and analyzed to determine: (1) Bacterial Yield (CFU/mL) calculated from optical density; (3) Percent viability of EPIOCULAR; and (4) EPIOCULAR IL-8. The samples included: (1) Deionized Water; (2) A urine:TSB mixture (9:1 by volume) as described above; (3) A urine:TSB mixture containing Proteus mirabilis bacteria grown under aerobic conditions as described above; (4) A urine:TSB mixture containing Proteus mirabilis bacteria grown under facultative conditions as described above; and (5) A urine:TSB mixture containing Proteus mirabilis bacteria grown under anaerobic conditions as described above.
(§2) In this Example, six different samples were prepared for analysis. The first sample comprised a urine:TSB mixture that was prepared in the same manner as that described in Example 1. […] The tube was loosely fitted with a screw cap, and held stationary at 37° C. overnight to grow the bacteria. […] The fifth sample comprising urine:TSB:Proteus mirabilis (facultatively grown) was prepared in the same manner as that described in Example 1.

[3] = system: Proteus mirabilis (ATCC 29906); test: Ammonia production by facultatively grown Proteus mirabilis in urine:TSB (ammonia probe)
Procedure: as §1
Upon completion of the respective incubation periods of the samples, optical density measurements of each sample were taken as described above and ammonia production of the growth solutions was measured using an ammonia combination probe (Beckman, Fullerton, Calif.) by record mV using an Orion pH meter (Orion, Boston, Mass.). Orion ammonia standards (Orion) were used to calibrate the instrument.
as §2

[4] = Table 7, 10% (w/v) mannitol, facultative

Molecule: mannitol peroxide [24 Hr.]
- optical density (bacterial cell growth) ([1]; 0.0097% in urine:TSB): 0.99
- optical density (bacterial cell growth) ([1]; 0.0195% in urine:TSB): 0.98
- optical density (bacterial cell growth) ([1]; 0.0391% in urine:TSB): 0.99
- optical density (bacterial cell growth) ([1]; 0.0785% in urine:TSB): 0.97
- optical density (bacterial cell growth) ([1]; 0.156% in urine:TSB): 0.97
- optical density (bacterial cell growth) ([1]; 0.313% in urine:TSB): 0.97
- optical density (bacterial cell growth) ([1]; 0.625% in urine:TSB): 0.96
- optical density (bacterial cell growth) ([1]; 1.25% in urine:TSB): 0.95
- optical density (bacterial cell growth) ([1]; 2.5% in urine:TSB): 0.93
- optical density (bacterial cell growth) ([1]; 5% in urine:TSB): 0.88
- optical density (bacterial cell growth) ([1]; 10% in urine:TSB): 0.80

Molecule: OC[C@@H](O)[C@@H](O)[C@H](O)[C@H](O)CO [Mannitol, mannitol, reference compound]
- Bacterial Yields [2]: 6.91E+8 CFU/mL
- Ammonia Produced (n = 3) [3, 4]: 621.6 ± 1.8 ppm
- Ammonia/Cell [3, 4]: 83.8 ppm/10E8CFU
- impact on the production of ammonia in the bacteria ([3]; mannitol in the absence of hydrogen peroxide, 10% (w/v)): does not significantly impact the production of ammonia
- optical density (bacterial cell growth) ([1]; 0.0097% in urine:TSB): 0.98
- optical density (bacterial cell growth) ([1]; 0.0195% in urine:TSB): 0.98
- optical density (bacterial cell growth) ([1]; 0.0391% in urine:TSB): 0.97
- optical density (bacterial cell growth) ([1]; 0.0785% in urine:TSB): 0.97
- optical density (bacterial cell growth) ([1]; 0.156% in urine:TSB): 0.92
- optical density (bacterial cell growth) ([1]; 0.313% in urine:TSB): 0.92
- optical density (bacterial cell growth) ([1]; 0.625% in urine:TSB): 0.98
- optical density (bacterial cell growth) ([1]; 1.25% in urine:TSB): 1.02
- optical density (bacterial cell growth) ([1]; 2.5% in urine:TSB): 0.99
- optical density (bacterial cell growth) ([1]; 5% in urine:TSB): 0.89
- optical density (bacterial cell growth) ([1]; 10% in urine:TSB): 0.87
- effect on cell growth ([1]; at elevate concentrations): little, if any, effect on cell growth
- effect on cell growth ([1]; at low concentrations): no effect on cell growth

Molecule: mannitol peroxide [3 Hr.]
- optical density (bacterial cell growth) ([1]; 0.0097% in urine:TSB): 0.98
- optical density (bacterial cell growth) ([1]; 0.0195% in urine:TSB): 0.94
- optical density (bacterial cell growth) ([1]; 0.0391% in urine:TSB): 0.94
- optical density (bacterial cell growth) ([1]; 0.0785% in urine:TSB): 0.97
- optical density (bacterial cell growth) ([1]; 0.156% in urine:TSB): 0.99
- optical density (bacterial cell growth) ([1]; 0.313% in urine:TSB): 0.83
- optical density (bacterial cell growth) ([1]; 0.625% in urine:TSB): 0.99
- optical density (bacterial cell growth) ([1]; 1.25% in urine:TSB): 0.04
- optical density (bacterial cell growth) ([1]; 2.5% in urine:TSB): 0.03
- optical density (bacterial cell growth) ([1]; 5% in urine:TSB): 0.03
- optical density (bacterial cell growth) ([1]; 10% in urine:TSB): 0.03

Molecule: mannitol peroxide [4.5 Hr.]
- optical density (bacterial cell growth) ([1]; 0.0097% in urine:TSB): 0.97
- optical density (bacterial cell growth) ([1]; 0.0195% in urine:TSB): 0.98
- optical density (bacterial cell growth) ([1]; 0.0391% in urine:TSB): 0.99
- optical density (bacterial cell growth) ([1]; 0.0785% in urine:TSB): 0.99
- optical density (bacterial cell growth) ([1]; 0.156% in urine:TSB): 0.98
- optical density (bacterial cell growth) ([1]; 0.313% in urine:TSB): 0.99
- optical density (bacterial cell growth) ([1]; 0.625% in urine:TSB): 0.93
- optical density (bacterial cell growth) ([1]; 1.25% in urine:TSB): 0.99
- optical density (bacterial cell growth) ([1]; 2.5% in urine:TSB): 0.97
- optical density (bacterial cell growth) ([1]; 5% in urine:TSB): 0.87
- optical density (bacterial cell growth) ([1]; 10% in urine:TSB): 0.04
